Reference: article PMC3614091 (Organic & biomolecular chemistry, 2010)

What was measured:
[1] = target: T1, PDZ3 of PSD-95 (Homo sapiens, UniProt P78352); experiment: Fluorescence polarization assay, PSD-95 PDZ3; format: binding; settings: tested at 500 µM (data not shown)
[2] = target: T2, PDZ2 of PSD-95 (Homo sapiens, UniProt P78352); experiment: Fluorescence polarization assay, PSD-95 PDZ2; format: binding; settings: tested at 500 µM (data not shown)
[3] = target: T3, PICK1 PDZ domain (Rattus norvegicus, UniProt Q9EP80); format: binding; settings: for affinity for PICK1 PDZ domain: at up to 500 µM concentrations (data not shown)
T3 sequence (Q9EP80 whole entry, the tested form may be a part): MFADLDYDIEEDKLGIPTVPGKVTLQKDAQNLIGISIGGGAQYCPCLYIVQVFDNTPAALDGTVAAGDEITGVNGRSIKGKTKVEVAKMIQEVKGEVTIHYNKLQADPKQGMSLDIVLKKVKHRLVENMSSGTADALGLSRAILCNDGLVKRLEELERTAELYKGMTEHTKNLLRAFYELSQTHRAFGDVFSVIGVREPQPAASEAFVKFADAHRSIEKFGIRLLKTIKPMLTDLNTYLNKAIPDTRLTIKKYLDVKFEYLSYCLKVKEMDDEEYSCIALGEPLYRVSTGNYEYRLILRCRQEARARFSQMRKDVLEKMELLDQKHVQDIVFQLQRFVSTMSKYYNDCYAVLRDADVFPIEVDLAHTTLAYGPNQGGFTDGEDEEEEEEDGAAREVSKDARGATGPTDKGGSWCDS

[4] = target: T4, PDZ1 of PSD-95 (Homo sapiens, UniProt P78352); experiment: Fluorescence polarization assay, PSD-95 PDZ1; format: binding; settings: tested at 500 µM (data not shown)
[5] = target: T4, PDZ1 of PSD-95; settings: PDZ domains from PSD-95; cited from earlier work
[6] = target: T3, PICK1 PDZ domain; settings: cited from earlier work
[7] = target: T1, PDZ3 of PSD-95; settings: PDZ domains from PSD-95; cited from earlier work
[8] = target: T2, PDZ2 of PSD-95; settings: PDZ domains from PSD-95; cited from earlier work
[9] = test system: PICK1; settings: biochemical studies; cited from earlier work
[10] = test system: AMPA receptor trafficking; settings: cited from earlier work
[11] = test system: PDZ4-5 of glutamate receptor interacting protein-1 (GRIP1); settings: PDZ4-5 of GRIP1; cited from earlier work
[12] = test system: hippocampal CA1 neurons; settings: cited from earlier work

Row | Structure (SMILES) | affinity towards PDZ3 of PSD-95 [1] | affinity towards PDZ2 of PSD-95 [2] | affinity for PICK1 PDZ domain [3] | affinity towards PDZ1 of PSD-95 [4] | Ki [3] [µM] | affinity for PDZ1 of PSD-95 [5] | binding to PICK1 PDZ domain in living cells ([6]; intracellular FRET) | membrane permeability ([6]; not told) | affinity for PDZ3 of PSD-95 [7] | affinity for PDZ2 of PSD-95 [8] | reversibility of binding to PICK1 [9] | effect on AMPA receptor trafficking [10] | affinity for PDZ domains from GRIP1 [11] | effect on induction of LTD and LTP [12]
1 | CCOC(=O)NC(=O)C(C#N)Cc1ccc(Cl)c(Cl)c1 (centres unmarked) [Compound 3, Ethyl 2-cyano-3-(3,4-dichlorophenyl)propanoylcarbamate] | none of the compounds showed affinity | none of the compounds showed affinity | devoid of affinity | none of the compounds showed affinity |  |  |  |  |  |  |  |  |  | 
2 | CCOC(=O)NC(=O)/C(C#N)=C/c1ccc(Cl)c(Cl)c1 [Compound 1, (E)-ethyl 2-cyano-3-(3,4-dichlorophenyl)acryloylcarbamate] |  |  |  |  | 9.6 ± 0.22 | no affinity | binds the PICK1 PDZ domain in living cells | membrane permeable | no affinity | no affinity | binds reversibly | affected AMPA receptor trafficking | no affinity | inhibited induction of LTD and LTP
3 | CCOC(=O)NC(=O)/C=C/c1ccc(Cl)c(Cl)c1 [Compound 5, (E)-ethyl 3-(3,4-dichlorophenyl)acryloylcarbamate] | none of the compounds showed affinity | none of the compounds showed affinity | devoid of affinity | none of the compounds showed affinity |  |  |  |  |  |  |  |  |  | 

More lines, main results first:

Row | affinity towards PDZ3 of PSD-95 [1] | affinity towards PDZ2 of PSD-95 [2] | affinity for PICK1 PDZ domain [3] | affinity towards PDZ1 of PSD-95 [4] | Ki [3] [µM] | Structure (SMILES) | affinity for PDZ1 of PSD-95 [5] | binding to PICK1 PDZ domain in living cells ([6]; intracellular FRET) | membrane permeability ([6]; not told) | affinity for PDZ3 of PSD-95 [7] | affinity for PDZ2 of PSD-95 [8] | reversibility of binding to PICK1 [9] | effect on AMPA receptor trafficking [10] | affinity for PDZ domains from GRIP1 [11] | effect on induction of LTD and LTP [12]
4 | none of the compounds showed affinity | none of the compounds showed affinity | devoid of affinity | none of the compounds showed affinity |  | CCCCNC(=O)/C(C#N)=C/c1ccc(Cl)c(Cl)c1 [Compound 8, (E)-N-butyl-2-cyano-3-(3,4-dichlorophenyl)acrylamide] |  |  |  |  |  |  |  |  | 
5 | none of the compounds showed affinity | none of the compounds showed affinity | devoid of affinity | none of the compounds showed affinity |  | CCOC(=O)NC/C(C#N)=C/c1ccc(Cl)c(Cl)c1 [Compound 14, (Z)-ethyl 2-cyano-3-(3,4-dichlorophenyl)allylcarbamate] |  |  |  |  |  |  |  |  | 
